# PubChem BioAssay (NCI)
#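 These data come from cells grown in 96-well plates and exposed to compound for 48 hours at five concentrations. Abbreviation: GI50, concentration required for 50% inhibition of growth. TGI is the concentration that stops growth completely.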
# Tests used:
# Test in all cases: inhibition of tumour cell growth, NCI panel, 48 h
# [1] = test system: A549 NSCLC
# [2] = test system: K-562 leukemia
# [3] = test system: KM12 colon
# [4] = test system: LOX IMVI melanoma
# [5] = test system: MALME-3M melanoma
# [6] = test system: SF-268 CNS
# [7] = test system: SK-MEL-28 melanoma
# [8] = test system: SK-OV-3 ovarian
# [9] = test system: SR leukemia
# [10] = test system: UACC-62 melanoma
SMILES,TGI [1] [µM],TGI [2] [µM],TGI [3] [µM],TGI [4] [µM],TGI [5] [µM],TGI [6] [µM],TGI [7] [µM],TGI [8] [µM],TGI [9] [µM],TGI [10] [µM],GI50 [1] [µM],GI50 [2] [µM],GI50 [3] [µM],GI50 [4] [µM],GI50 [5] [µM],GI50 [6] [µM],GI50 [7] [µM],GI50 [8] [µM],GI50 [9] [µM],GI50 [10] [µM]
COc1ccc2c(c1)c1nn(CCN(C)C)c3ccc4c(=O)n(CCN(C)C)c(=O)n2c4c13,0.0759,0.448,0.481,0.469,0.555,0.211,0.854,0.304,0.0522,0.474,,,,,,,,,,
COc1cc([C@@H]2c3cc4c(cc3[C@H](OC3OC5COC(C(C)C)OC5C(O)C3O)C3COC(=O)[C@@H]32)OCO4)cc(OC)c1O (some centres undefined),21.8,> 100,39.6,30,36,35,,39.1,> 100,24.7,,,,,,,,,,
Cc1nc(-c2ccccc2)c(C)n2c1nc1ccccc12,> 100,> 100,> 100,> 100,> 100,98.7,> 100,46.3,56.2,41,,,,,,,,,,
O=C(c1ccccc1)c1nn(-c2ccc(Cl)cc2)c2nc3nc(-c4ccccc4)cc(=O)n3nc12,> 100,> 100,> 100,> 100,65.1,> 100,> 100,> 100,57.6,41.9,66.3,50.1,31.9,28.1,3.08,42.2,53.7,> 100,22.9,19.8
CN(C)CCN1C(=O)CC[C@@]2(C)C1=CC[C@@H]1[C@@H]2CC[C@@]2(C)[C@H]1CC[C@]2(C)O,> 100,> 100,> 100,> 100,> 100,> 100,> 100,> 100,> 100,> 100,,,,,,,,,,
NS(=O)(=O)c1ccc(NC(=O)c2cc([N+](=O)[O-])cc([N+](=O)[O-])c2)cc1,> 100,> 100,> 100,78.1,57.2,> 100,> 100,> 100,> 100,54.2,,,,,,,,,,
CCN(CC)CCNC(=O)c1ccc([N+](=O)[O-])cc1OC,> 100,> 100,> 100,> 100,> 100,> 100,> 100,> 100,> 100,> 100,,,,,,,,,,
O=C1Nc2cccc3ncn(c23)C2=C1CCCC2,> 100,> 100,> 100,> 100,> 100,> 100,> 100,> 100,> 100,> 100,,,,,,,,,,
CCOC(=O)C1(Cc2ccccc2)Cc2cc3c(cc2C1)CCC3,> 100,> 100,> 100,43.9,> 100,> 100,> 100,90.9,65.1,> 100,,,,,,,,,,
